Where “and” joins values, the source holds several entries; their conditions need not be identical. Equal entries are not always repeated. Where two headings read alike, the source gives them in different places.
Tests used:
Assay type in all cases: cell-based, human
CAKI-1 cells = test: MTT cytotoxicity, kidney cancer cells CAKI-1
Description: (§1) The cytotoxicity, general tyrosine kinase inhibitory effects and cell death (apoptosis/necrosis) assays of 1-benzyl-3-(1H-indol-3-ylmethylidene)-1,3-dihydro-2H-indol-2-one derivatives (Formula 5) of the present invention are studied by the following methods. […] HUVEC (human umbilical vein endothelial cell), MCF-10F (human breast epithelial cell) and Beas2b (human lung bronchial epithelial cell) cell lines have been used as healthy control cells in MTT experiments.
(§2) Beas2b (human lung bronchiole epithelial cell) and HEK293 (renal tubule epithelium) cells used as normal cell lines were cultured in RPMI medium, and HUVEC (human umbilical cord endothelial cells) and MCF-10F (human breast epithelial cell) cells are cultured in DMEM medium containing 100 µg/ml penicillin/streptomycin. The cells, which covered 70% of the culture flask, are washed with phosphate buffer and then removed from the surface of the flask by application of trypsin-ethylenediamine tetraacetic acid (Trypsin-EDTA; 0.25%) solution, passaged, counted and seeded on appropriate plates before each experiment. Cells are treated with a total of 45 2-indolinone compounds (5) at concentrations of 0.1, 1, 5 and 10 μM. Stock compounds are prepared in 1 ml dimethylsulfoxide (DMSO) and 4 different dilutions were prepared with medium and performed to the cells. Control group cells are treated with DMSO at a similar concentration to the experimental groups.
(§3) MTT (3-(4,5-dimethylthiazol-2-yl)-2,5-diphenyl-2H-tetrazolium bromide) colorimetric assay provides quantitation of viable cells with ongoing mitochondrial activity in culture medium. According to the standard procedure in cell culture conditions, cells are maintained in RPMI-1640 and DMEM culture media containing 10% FBS and 1% penicillin/streptomycin. The trypan blue test is used for cell counts.
(§4) The effects of 45 2-indolinone compounds (5) on cell viability in all cancer cell lines are investigated by MTT assay. Cells are seeded in a 96-well flat bottom plate with 5000 cells in each well and 2-indolinone compounds (5) at concentrations of 0.1, 1, 5 and 10 μM are performed to the cells the next day. After 48 and/or 72 hours following treatment with 2-indolinone compounds, 50 μl of the supernatant is slowly discarded (as it was acid medium) and MTT at a concentration of 5 mg/ml is added to each well in a volume of 10 μl. After incubation for 4 hours, the formazan crystals formed in the wells are dissolved by adding 100 μl DMSO and the optical density is read at 570 nm test wavelength and 630 nm reference wavelength. Cell viability is expressed as % cell viability by comparing the absorbance of control and test wells. IC50 value is calculated from the dose-response curves prepared for each compound. In addition, the possible DMSO effect is eliminated by preparing negative control wells compatible with the amount of DMSO contained in the compounds. To understand the reaction of the compounds with MTT, cell-free (MTT+compounds) negative controls are prepared at the concentrations used (Mosmann, 1983). […] The absorbance values obtained are compared to the control and statistically evaluated by unpaired t-test using “Graphpad Prism 5.04” software. “P<0.05” is accepted as significant. When evaluating cytotoxic effects, the present inventors aim for the inventive compounds to be effective in cancer cells and ineffective in healthy cells. The inventive compounds have also been compared with sunitinib, one of the reference chemotherapy drugs currently used in treatment.
(§5) Among the compounds of the present invention, those that killed cancer cells by at least 50% (p<0.05) are selected and tested whether a 10-fold concentration of the M concentration at the IC50 value is toxic to normal healthy cells.

HCT-116 cells = test: MTT cytotoxicity, colon cancer cells HCT-116; details: no * mark (incubation time not specified)
Description: as §1, §2, §3, §4

HT-29 cells = test: MTT cytotoxicity, colon cancer cells HT-29; details: MTT, no * mark (incubation time not specified)
Description: as §1, §2, §3, §4

A498 cells = test: MTT cytotoxicity, kidney cancer cells A498; details: MTT
Description: as §1, §2, §3, §4, §5

MDA-MB-231 cells = test: MTT cytotoxicity, breast cancer cells MDA-MB-231; details: read-out: IC50, MDA-MB-231 (breast), MTT
Description: as §1, §2, §3, §4, §5

MCF-7 cells = test: MTT cytotoxicity, breast cancer cells MCF-7; details: MTT
Description: as §1, §2, §3, §4, §5

A549 cells = test: MTT cytotoxicity, lung cancer cells A549; details: no * mark (incubation time not specified)
Description: as §1, §2, §3, §4, §5

MIAPaCa-2 cells = test: MTT cytotoxicity, pancreas cancer cells MIAPaCa-2; details: MTT
Description: as §1, §2, §3, §4

MCF-10F/Beas2b cells = test: MTT cytotoxicity, healthy cells MCF-10F/Beas2b; details: for IC50: MTT; for Selectivite Index, MCF-10F/Beas2b (Table 2): MCF-10F/Beas2b vs colon or pancreas cancer cells, cancer line not given
Description: as §1, §2, §3, §4, §5

HUVEC cells = test: MTT cytotoxicity, healthy cells HUVEC; details: for IC50: MTT; for Selectivite Index, HUVEC (Table 2): HUVEC vs colon or pancreas cancer cells, cancer line not given
Description: as §1, §2, §3, §4, §5

[1] = no * mark (incubation time not specified)
[2] = *: effective 72 hours after incubation
[3] = no * mark (incubation time not given)

SMILES	IC50 (CAKI-1 cells; [1]) [µM]	IC50 (HCT-116 cells) [µM]	IC50 (HT-29 cells) [µM]	IC50 (A498 cells; [2]) [µM]	IC50 (MDA-MB-231 cells; [3]) [µM]	IC50 (MCF-7 cells; [1]) [µM]	IC50 (A549 cells) [µM]	IC50 (MIAPaCa-2 cells; [1]) [µM]	IC50 (MCF-10F/Beas2b cells; [1]) [µM]	IC50 (HUVEC cells; [1]) [µM]	IC50 (CAKI-1 cells; [2]) [µM]	IC50 (A498 cells; [1]) [µM]	IC50 (HUVEC cells; [2]) [µM]	IC50 (MDA-MB-231 cells; [2]) [µM]	IC50 (MIAPaCa-2 cells; [2]) [µM]	Selectivite Index, MCF-10F/Beas2b (Table 2) (MCF-10F/Beas2b cells)	Selectivite Index, HUVEC (Table 2) (HUVEC cells)	IC50 (MCF-7 cells; [2]) [µM]	IC50 (MCF-10F/Beas2b cells; [2]) [µM]
Cc1ccc(CN2C(=O)/C(=C\c3c[nH]c4ccccc34)c3cccc(F)c32)cc1 [35C]	4.5	0.23	1.01	3.09	> 10	> 10	5.93	0.62	3.23	1.62									
O=C1/C(=C\c2c[nH]c3ccccc23)c2cccc(F)c2N1Cc1cccc(Cl)c1 [32C]		4.31	1.65		4.53	3.86	> 10	1.35	1.35		8.76	8.26	1						
O=C1/C(=C\c2c[nH]c3ccccc23)c2cc(F)ccc2N1Cc1ccc(F)cc1 [10C]		3.96	2.29			> 10	3.49	2.77	2.99	4.65	6.69	3.81		8.13					
O=C1/C(=C\c2c[nH]c3ccccc23)c2cc(OC(F)(F)F)ccc2N1Cc1ccc(F)cc1 [3C]	3.7	5.74	1.38	7.53	2.27	5.06	4.22		2.98	4.3					0.95				
O=C1/C(=C\c2c[nH]c3ccccc23)c2cccc(F)c2N1Cc1ccc(F)cc1 [31C]		0.39	3.95			7.1	3.64	0.73	4.42	1.26	9.14	2.85		9.09		11.33 and 6.05	3.23 and 1.72		
O=C1/C(=C\c2c[nH]c3ccccc23)c2cc(OC(F)(F)F)ccc2N1Cc1cccc(F)c1 [2C]		2.88	> 10		2.91	8.82	3.58		3.07	2.56	5.46	4.78			7.35				
Cc1ccc(CN2C(=O)/C(=C\c3c[nH]c4ccccc34)c3cc(F)ccc32)cc1 [Y25]		1.46	> 10		3.4		3.31	1.14	2.72	0.13	7	3.15						4.83	
Cc1ccc(CN2C(=O)/C(=C\c3c[nH]c4ccccc34)c3cc(Cl)ccc32)cc1 [Y22]	> 10	2.34	> 10		> 10	> 10	> 10	0.49	1.1	2.34		> 10							
Cc1ccc2c(c1)/C(=C/c1c[nH]c3ccccc13)C(=O)N2Cc1ccc(F)cc1 [45C]		0.47	> 10	0.78	> 10	> 10	2.22	> 10		2.62	4.91					6.14	5.57		2.89
Cc1cccc(CN2C(=O)/C(=C\c3c[nH]c4ccccc34)c3cc(C)ccc32)c1 [48C]		0.6	1.46	0.73	> 10		3	2.02	3.35	1.07	3.46							3.96	3.35
Cc1cccc(CN2C(=O)C(=Cc3c[nH]c4ccccc34)c3cccc(F)c32)c1 [34C]	7.61	0.64	> 10		> 10	> 10	4.7	> 10	4.1	1.69		3.64							
O=C1/C(=C\c2c[nH]c3ccccc23)c2cc(Cl)ccc2N1Cc1ccc(Cl)cc1 [19C]	> 10	> 10	> 10		> 10	3.16	5.55	> 10	1.87	1.87		0.51							
O=C1C(=Cc2c[nH]c3ccccc23)c2cc(Cl)ccc2N1Cc1cccc(Cl)c1 [18C]	3.46	3.94	3.12		7.99	5.53	6.57		1.07	1.07		1.75			1.54				
O=C1/C(=C\c2c[nH]c3ccccc23)c2cc(Cl)cc(Cl)c2N1Cc1ccccc1 [36C]		2.51	> 10	1.46	> 10	> 10	2.35	0.46		2.24	4.01					7.83	4.87		3.6

— patent publication US20260335282A1, “NOVEL 3-ARYLIDENE-2-INDOLINONE DERIVATIVES FOR THERAPEUTIC USE” (ISTANBUL UNIVERSITESI REKTORLUGU, priority 2022, published 2026)
